Positions count from the first letter of the chain named. Where two headings read alike, the source gives them in different places. Ends that are not written are not given here.
Legend:
Test in all cases: biochemical
HLA-DR DRB5*01:01 = HLA-DR DRB5*01:01 (Homo sapiens, UniProt P01903+Q30154); assay type: binding
[1] = target: HLA-DP DPA1*03:01/DPB1*04:02 (Homo sapiens, UniProt P04440+P20036, A42M/A65V/A84D/A85E/L207M/L97S)
HLA-DR DRB1*12:01 = HLA-DR DRB1*12:01 (Homo sapiens, UniProt P01903+P01911, A100R/A169T/D57E/D86V/F55L/H45Y/K41T/L162R/M171V/P40S/Q125H/Q178H/Q39Y/Q99D/R42G/S66L/T262R/V114A/V67L/W38E/Y59H/Y61H/Y89S); assay type: binding
HLA-DR DRB1*09:01 = HLA-DR DRB1*09:01 (Homo sapiens, UniProt P01903+P01911, A100R/A103E/D57H/D86V/F55Y/F60I/F76Y/I96F/K127E/L162R/M171V/P40D/Q125H/Q99R/R33Q/R42F/S133A/S66N/T210M/V115G/W38K/Y107V/Y59G/Y89S); assay type: binding
[2] = target: T1, HLA-DP DPA1*01:03/DPB1*02:01 (Homo sapiens, UniProt P04440+P20036, A65V/A84D/A85E/K98E); assay type: binding
T1 sequence (P20036 29-260): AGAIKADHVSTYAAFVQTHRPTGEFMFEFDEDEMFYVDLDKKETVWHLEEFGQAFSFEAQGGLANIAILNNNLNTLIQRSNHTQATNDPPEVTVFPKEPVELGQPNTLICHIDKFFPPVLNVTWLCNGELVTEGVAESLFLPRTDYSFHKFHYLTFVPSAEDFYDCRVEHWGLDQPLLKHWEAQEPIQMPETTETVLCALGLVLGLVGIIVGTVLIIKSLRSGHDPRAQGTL
T1 sequence (P04440 30-258 A65V/A84D/A85E/K98E): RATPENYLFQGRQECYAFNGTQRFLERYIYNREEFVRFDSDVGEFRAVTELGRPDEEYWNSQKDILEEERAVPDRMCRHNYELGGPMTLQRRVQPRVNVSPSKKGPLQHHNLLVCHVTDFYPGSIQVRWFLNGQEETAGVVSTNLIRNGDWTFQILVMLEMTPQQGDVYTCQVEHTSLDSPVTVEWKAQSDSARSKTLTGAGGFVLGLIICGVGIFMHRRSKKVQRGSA

HLA-DR DRB1*03:01 = HLA-DR DRB1*03:01 (Homo sapiens, UniProt P01903+P01911, A100K/A102G/A103R/A169T/F55Y/I96L/K41T/L162R/M171V/P40S/Q125H/Q178H/Q39Y/R42S/S66N/T106N/T262R/W38E/Y61H); assay type: binding
HLA-DR DRB1*08:02 = HLA-DR DRB1*08:02 (Homo sapiens, UniProt P01903+P01911, A100R/A103L/A169T/F76Y/H45Y/I96F/K41T/L162R/M171V/P40S/Q125H/Q178H/Q39Y/Q99D/R218S/R42G/S66Y/V115G/W38E); assay type: binding
HLA-DR DRB4*01:01 = HLA-DR DRB4*01:01 (Homo sapiens, UniProt P01903+P13762, G164S); assay type: binding
[3] = target: T2, HLA-DP DPA1*01:03/DPB1*03:01 (Homo sapiens, UniProt P04440+P20036, A65V/A84D/A85E/E86D/F38Y/G113D/G114E/G40L/I94L/L37V/M105V/M116V/P115A/R125K/T199I); assay type: binding
T2 sequence (P20036 29-260): T1 sequence (P20036 29-260)
T2 sequence (P04440 30-258 L37V/F38Y/G40L/A65V/A84D/A85E/E86D/I94L/M105V/G113D/G114E/P115A/M116V/R125K/T199I): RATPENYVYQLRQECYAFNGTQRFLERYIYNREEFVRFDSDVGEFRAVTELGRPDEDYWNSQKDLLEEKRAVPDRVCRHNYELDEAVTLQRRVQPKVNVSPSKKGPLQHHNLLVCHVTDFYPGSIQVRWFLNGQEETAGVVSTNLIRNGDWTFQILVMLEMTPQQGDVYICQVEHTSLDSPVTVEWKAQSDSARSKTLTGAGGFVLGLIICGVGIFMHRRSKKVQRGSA

[4] = target: T3, HLA-DP DPA1*02:01/DPB1*05:01 (Homo sapiens, UniProt P04440+P20036, A65V/A84E/F191V/F64L/G113D/G114E/K142R/L158P/M116V/M62Q/P115A/Q81R/R125K/T114A/T199I/T259P/V234M); assay type: binding
T3 sequence (P20036 29-260 A42M/M62Q/Q81R/T114A/K142R/L158P/F191V/T259P): T1 sequence (P20036 29-260) with A14M, M34Q, Q53R, T86A, K114R, L130P, F163V, T231P
T3 sequence (P04440 30-258 F64L/A65V/A84E/G113D/G114E/P115A/M116V/R125K/T199I/V234M): T2 sequence (P04440 30-258 L37V/F38Y/G40L/A65V/A84D/A85E/E86D/I94L/M105V/G113D/G114E/P115A/M116V/R125K/T199I) with V8L, Y9F, L11G, F35L, D55E, E56A, D57E, L65I, V76M, V205M

[5] = read-out: Binding capacity/IC50 (nM) DRB5*01:01
[6] = read-out: Binding capacity/IC50 (nM) DRB1*12:01
[7] = read-out: Binding capacity/IC50 (nM) DRB1*09:01
[8] = read-out: Binding capacity/IC50 (nM) DPA1*01:03 DPB1*02:01
[9] = read-out: Binding capacity/IC50 (nM) DRB1*03:01
[10] = read-out: Binding capacity/IC50 (nM) DRB1*08:02
[11] = read-out: Binding capacity/IC50 (nM) DRB4*01:01
[12] = read-out: Binding capacity/IC50 (nM) DPA1*01:03 DPB1*03:01
[13] = read-out: Binding capacity/IC50 (nM) DPA1*02:01 DPB1*05:01

Compound | IC50 (HLA-DR DRB5*01:01; [5]) [nM] | IC50 [1] [nM] | IC50 (HLA-DR DRB1*12:01; [6]) [nM] | IC50 (HLA-DR DRB1*09:01; [7]) [nM] | IC50 [2, 8] [nM] | IC50 (HLA-DR DRB1*03:01; [9]) [nM] | IC50 (HLA-DR DRB1*08:02; [10]) [nM] | IC50 (HLA-DR DRB4*01:01; [11]) [nM] | IC50 [3, 12] [nM] | IC50 [4] [nM] | IC50 [2] [nM] | IC50 [4, 13] [nM] | IC50 (HLA-DR DRB1*12:01) [nM] | IC50 (HLA-DR DRB1*09:01) [nM] | IC50 (HLA-DR DRB1*03:01) [nM] | IC50 (HLA-DR DRB1*08:02) [nM] | IC50 (HLA-DR DRB4*01:01) [nM] | IC50 [3] [nM] | IC50 (HLA-DR DRB5*01:01) [nM]
CC[C@H](C)[C@H](NC(=O)[C@@H](NC(=O)[C@H](CCCCN)NC(=O)[C@@H](NC(=O)[C@@H]1CCCN1C(=O)[C@H](Cc1c[nH]c2ccccc12)NC(=O)[C@H](CCCNC(=N)N)NC(=O)CNC(=O)[C@H](C)NC(=O)[C@H](CC(C)C)NC(=O)[C@H](CCCCN)NC(=O)[C@H](CC(C)C)NC(=O)[C@@H](NC(=O)[C@H](Cc1ccccc1)NC(=O)[C@H](Cc1ccc(O)cc1)NC(=O)[C@H](C)NC(=O)[C@@H](NC(=O)[C@@H](N)CCC(=O)O)[C@@H](C)O)[C@@H](C)CC)C(C)C)C(C)C)C(N)=O [integrase(96-113)] | 4.4 | 141 | 1510 | 390 | 697 | 224 | 365 | 3080 | 1020 | 621 | – | – | – | – | – | – | – | – | –
CC[C@H](C)[C@H](NC(=O)[C@H](CCCCN)NC(=O)[C@@H](NC(=O)[C@@H](NC(=O)[C@@H](N)CCC(N)=O)[C@@H](C)CC)[C@@H](C)O)C(=O)N[C@@H](CCC(N)=O)C(=O)N[C@@H](CC(N)=O)C(=O)N[C@@H](Cc1ccccc1)C(=O)N[C@@H](CCCNC(=N)N)C(=O)N[C@H](C(=O)N[C@@H](Cc1ccc(O)cc1)C(=O)N[C@@H](Cc1ccc(O)cc1)C(=O)N[C@@H](CCCNC(=N)N)C(=O)N[C@@H](CC(=O)O)C(=O)N[C@@H](CO)C(=O)N[C@@H](CCCNC(=N)N)C(=O)N[C@@H](CC(=O)O)C(=O)N1CCC[C@H]1C(=O)N[C@H](C(=O)N[C@@H](Cc1c[nH]c2ccccc12)C(N)=O)[C@@H](C)CC)C(C)C [integrase(216-235)] | 9.5 | 89 | 6.6 | 542 | – | 11 | 8.8 | 2080 | 83 | – | 311 | 7.6 | – | – | – | – | – | – | –
CC[C@H](C)[C@H](NC(=O)[C@H](C)NC(=O)[C@H](CCCCN)NC(=O)[C@H](CCCCN)NC(=O)CNC(=O)[C@H](CS)NC(=O)[C@@H](NC(=O)[C@H](CCC(=O)O)NC(=O)[C@@H](NC(=O)[C@H](CC(C)C)NC(=O)[C@@H](NC(=O)[C@H](CCC(N)=O)NC(=O)[C@H](CC(=O)O)NC(=O)[C@H](Cc1ccc(O)cc1)NC(=O)[C@H](CCC(N)=O)NC(=O)[C@H](CCCNC(=N)N)NC(=O)[C@@H](NC(=O)[C@H](CCCCN)NC(=O)[C@@H](NC(=O)[C@@H](N)Cc1ccccc1)[C@@H](C)CC)C(C)C)[C@@H](C)CC)[C@@H](C)CC)[C@@H](C)CC)C(=O)NCC(=O)N[C@H](C(=O)N[C@H](C(N)=O)C(C)C)[C@@H](C)O [protease(53-75)] | 93 | 342 | – | – | 41 | – | – | 302 | 9.4 | – | – | 53 | 77 | 234 | 347 | 325 | – | – | –
CC[C@H](C)[C@H](NC(=O)[C@H](C)NC(=O)[C@@H](N)CCC(=O)O)C(=O)N[C@H](C(=O)N[C@@H](CCCNC(=N)N)C(=O)N[C@H](C(=O)N[C@@H](CC(C)C)C(=O)N[C@@H](CCC(N)=O)C(=O)N[C@@H](CCC(N)=O)C(=O)N[C@@H](CC(C)C)C(=O)N[C@@H](CC(C)C)C(=O)N[C@@H](Cc1ccccc1)C(=O)N[C@H](C(=O)N[C@@H](Cc1c[nH]cn1)C(=O)N[C@@H](Cc1ccccc1)C(=O)N[C@@H](CCCNC(=N)N)C(=O)N[C@H](C(=O)NCC(=O)N[C@@H](CS)C(=O)N[C@@H](CCC(N)=O)C(=O)N[C@@H](Cc1c[nH]cn1)C(=O)N[C@@H](CO)C(=O)N[C@@H](CCCNC(=N)N)C(N)=O)[C@@H](C)CC)[C@@H](C)CC)[C@@H](C)CC)[C@@H](C)CC [vpr(58-80)] | 443 | 96 | – | – | 717 | – | – | – | – | – | – | 2990 | 845 | 477 | 14400 | 61 | 475 | 348 | –
EAVRHFPRPWLHGL-NH2 [vpr(29-42)] | 731 | 139 | – | – | 2140 | – | – | 278 | – | – | – | 8450 | > 30000 | 1270 | > 30000 | 130 | – | 11 | –
IRYPLTFGWCFKLVPVDPREVEEA-NH2 [nef(133-156)] | – | 670 | 4430 | 360 | 119 | 704 | 2160 | 1640 | 5360 | – | – | 4780 | – | – | – | – | – | – | 317
SEELRSLYNTVATLYCVHQ-NH2 [p17(72-90)] | 435 | 83 | 1680 | 217 | 67 | 652 | 73 | 1100 | – | – | – | 1900 | – | – | – | – | – | 1740 | –
VGSLQYLALTALITPKK-NH2 [vif(142-158)] | – | 1.5 | – | – | 76 | – | – | – | – | – | – | 20 | 1670 | 64 | 4510 | 25 | 78 | 74 | 2.4
VVIQDNSDIKVVPRRKAKII-NH2 [integrase(249-268)] | – | 3670 | – | – | – | – | – | 847 | 350 | – | 7420 | 329 | 2280 | 7040 | 90 | 89 | – | – | 46
YAKMRSAHTNDVKQL-NH2 [RT(354-368)] | 80 | 6960 | 4840 | 66 | 687 | 7100 | 2.1 | 1440 | – | – | – | 2190 | – | – | – | – | – | 11900 | –
